# Patent US9580465B2, “Tissue protective peptides and peptide analogs for preventing and treating diseases and disorders associated with tissue damage” (ARAIM PHARMACEUTICALS, INC., priority 2008, dated 2017)
# Several values for one entry are separate records, joined by “and”; a condition that tells them apart may be missing. Equal values may be shown once. Entries after “also recorded” stand apart in the source; their conditions may differ. Square brackets hold non-standard residues; d marks the D form. pGlu = O=C1CC[C@@H](C(=O)O)N1
# Experiments:
# [1] = system: pressure ulcer; experiment: Decubitus ulcer (pressure sore) assay; type: in vivo, Sprauge-Dawley rats; conditions: FIG. 20
# Method: A decubitus ulcer (pressure sore) assay was performed on 24 adult Sprauge-Dawley rats in accordance with the disclosure of Pierce et al., Selective A2A adenosine receptor activation reduces skin pressure ulcer formation and inflammation, Am J Physiol Heart Circ Physiol 281:67-74, 2001. Briefly, a ferromagnetic steel plate was implanted under a dorsal region of the rats skin. A rectangular permanent magnet was applied to the area of the skin under which the plate was implanted in order to compress the skin between the plate and the magnet. This compression reduced the flow of blood to the skin causing ischemia. The rats were subjected to a cycle of ischemia-reperfusion (2 hours ischemia with a 0.5 hour reperfusion) for a 72-hour period. […] Daily the area of the wound on each rat was measured for a period of 12 days.
# [2] = system: middle cerebral artery occlusion; experiment: Middle cerebral artery occlusion model; type: in vivo, Sprague Dawley rats; conditions: 2 μg/kg bw i.v. upon reperfusion, then three injections at 2-hour intervals
# Method: Sprague Dawley rats (8 per group) are subjected to the following MCAO protocol Surgery was performed in accordance with the teachings of Brines et al, 2000, PNAS USA 97:10526-10531 (hereby incorporated by reference in its entirety. Briefly, the rats are anesthetized with chloral hydrate (400 mg/kg-bw, i.p.), the carotid arteries were visualized, and the right carotid was occluded by two sutures and severed. A burr hole adjacent and rostral to the right orbit allowed visualization of the middle cerebral artery (“MCA”), which was cauterized distal to the rhinal artery. To produce a penumbra (border zone) surrounding this fixed MCA lesion, the contralateral carotid artery was occluded for 1 hour by using […] provided by a fine forceps and then re-opened.
# The rats were administered saline, Peptide ID as a single i.v. dose (2 μg/kg bw), or Peptide IX, […], SEQ ID NO: 301), a scrambled version of Peptide IC, SEQ ID NO: 281, as a single Lv. dose (2 μg/kg bw) upon reperfusion, followed by three additional injections at 2-hour intervals. For assessment of injury, rats are subjected to behavioral testing or the volume of the lesion is determined by tetrazolium staining of brain sections performed 24 hours post surgery in accordance with the previously noted protocol.
# The volume of the lesion was then determined by tetrazolium staining of brain sections performed 24 hours post surgery.
# Rats were also tested in a foot fault behavioral protocol. Rats were tested on an elevated stainless steel grid floor 30 cm×30 cm with grid size of 30 mm according to the protocol of Markgraf et al., 1992, Brain Research 575:238-246 (hereby incorporated by reference in its entirety). When placed on the grid, a rat would attempt to move around and occasionally place a foot, rather than on the grid, through a grid opening (“foot fault”). The number of foot faults was measured for a 1 minute period.
# The number of foot faults is indicative of the cognitive impairment of the rats due to the MCAO, the fewer the number of foot faults the less cognitive impairment.
# [3] = system: full-thickness skin wounds; experiment: Full thickness punch biopsy model of wound healing; type: in vivo, Sprauge-Dawley rats; conditions: 24 nmol/kg of bw s.c. daily for 10 days; FIG. 8
# Method: A full thickness punch biopsy model of wound healing was used to evaluate Peptide ID. In this experiment, 3.5 mm-diameter full-thickness skin wounds were placed at the corners of a 3 cm-wide square on the shaved and depilated scapular region of Sprauge-Dawley rats. Peptide ID (24 nmol/kg of bw, 9 rats) or PBS (9 rats) was administered subcutaneously daily for 10 days.
# [4] = system: recall of previously experienced objects; experiment: Novel object recognition paradigm; type: in vivo, Wistar rats
# Method: A novel object recognition paradigm in rats was used to evaluate their recall of previously experienced objects. Specifically, adult Wistar rats were exposed to novel test objects and then reexposed to them 24 hours later. Animals were divided into 5 groups receiving either: (1) vehicle, (2) galantamine (3 mg/kg i.p.) 1 hr before testing as a positive control, (3) Peptide ID (24 nmol/kg bw i.p.) 3 hours after the first exposure to the novel objects, (4) Peptide ID (24 nmol/kg bw i.p.) twice daily for 5 days before training and continued through the day immediately after training, and (5) Peptide ID (24 nmol/kg bw i.p.) 1 hour before first exposure to the novel object.
# [5] = system: 9 L gliosarcoma cells; experiment: 9 L gliosarcoma implantation model, delayed treatment; type: in vivo, CD Fisher rats
# Method: In accordance with the accordance with the protocol of Lampson et al. Cancer Res. 53:176-82:1993 described above, CD Fisher rats were implanted with 9 L gliosarcoma cells transfected with the LacZ gene by use of a Hamilton syringe. 100,000 cells in 10 microliters were injected into the right caudate.
# ID with a short plasma half life, another receiving Peptide IW (pegylated form of Peptide IC) and the third group received saline. Peptides were given at a dose of 25 nmole/kg body weight. Three weeks later, the animals were sacrificed and serial 1 mm thick coronal sections cut through the brain and incubated with 5-bromo-4-chloro-3-indolyl-[beta]-D-galactopyranoside (Xgal). Tumor cells (containing the LacZ gene) metabolized Xgal into a dark blue stain, localizing the extent of tumor. High resolution digital images were obtained and the areas stained blue determined using planimetric methodology. Data is expressed as total area of tumor infiltration.
# [6] = system: histamine; experiment: Histamine induced wheal formation, peptide given at time of challenge; type: in vivo, Sprague-Dawley rats; conditions: 30 μg/kg at time of histamine challenge
# Method: Under isoflurane anesthesia, 12 Sprague-Dawley rats' abdomens were shaved and depilated. Each rat was then injected intravenously (via internal jugular) with a dilute solution of Evans Blue (30 mg/ml in saline, 1 ml/kg bw). After 5 minutes, 6 small doses of histamine (Histamine diphosphate, 20 microliters administered intradermally) in a rectangular pattern on each rat's abdomen. After fifteen minutes, when the wheal reaches its maximum size the wheal is photographed and the blister area was determined by digital planimetry. To test the efficacy of various peptides, the peptide of interest was administered to the rats intravenously shortly after the histamine injection.
# Rats received either saline, Peptide IY (30 μg/kg), Peptide ID (30 μg/kg), or Peptide IW (30 μg/kg) at time of histamine challenge.
# Rats received either saline, peptide JA (30 μg/kg), peptide IZ (30 μg/kg), peptide IW (30 μg/kg) or peptide ID (30 μg/kg) at time of histamine challenge.
sequence,measurement,setting,value
"UEQLERALNSS ([pGlu]EQLERALNSS-OH; also: acetate/ammonium mixed salt) [Peptide ID, first glutamine replaced with pyroglutamate]",wound (ulcer) size (area),"[1]; 30 μg/kg sc daily, compared with all groups",smallest wound size
same,wound (ulcer) size (area),"[1]; Peptide ID 30 μg/kg sc twice or daily, EPO daily, 12 days, versus saline",reduced the size of the wound; also recorded: better wound healing
same,infarct volume (volume of lesion),"[2]; 24 hours post surgery, tetrazolium staining",225±20 mm^3
same,number of foot faults in 1 minute period,"[2]; after MCAO, FIG. 5",11.2±1.1 foot faults
same,area of open wound over treatment,[3],faster healing; also recorded: healed more rapidly
same,recognition of the novel objects,"[4]; galantamine 3 mg/kg of bw, Peptide ID 24 nmol/kg of bw at various time points, FIG. 9",increased the rats recognition of the novel objects
same,recognition of the novel objects,[4]; group 3: 24 nmol/kg bw i.p. 3 hours after the first exposure to the novel objects,improved recognition of the novel objects
same,recognition of the novel objects,[4]; group 4: 24 nmol/kg bw i.p. twice daily for 5 days before training and through the day after training,improved recognition of the novel objects
same,tumor size (total area of tumor infiltration),"[5]; 25 nmole/kg i.p. daily starting two weeks after implantation, three weeks, FIG. 13, 14","smaller than the saline group, it was not significantly different; also recorded: reduced the size of tumor"
same,tumor size,"[5]; daily treatment begun immediately after implantation, FIG. 14",substantially smaller tumors; also recorded: reduction in size of the tumor
same,wheal area (lesion area),[6]; FIG. 18,about 0.35 cm^2
same,wheal area (lesion area),[6]; FIG. 19,~0.35 cm^2 and 0.4 cm^2
